Test results taken from publication PMC5515859, “Metabolism of F18, a Derivative of Calanolide A, in Human Liver Microsomes and Cytosol” (Frontiers in Pharmacology, 2017).
Where two headings read alike, the source gives them in different places.

Experiments:
human liver microsomes = assay: Incubation of F18 with human liver microsomes, metabolite profiling by LC-MS/MS; format: in vitro ADME; set-up: key: +: Metabolite detected; −: metabolite not detected; conditions: F18 50 μM, 1 h
Protocol: (§1) A stock solution of F18 (5 mM) was prepared in methanol. F18 (50 μM) was incubated with RLMs/DLMs/MLMs/HLMs and HLcy (0.5 mg protein/mL) in 50 mM Tris-HCl buffer containing 5 mM MgCl2 (pH 7.4) in a final volume of 200 μL. The final concentration of methanol in the incubation system was 1% (v/v). After 3 min of preincubation at 37°C, the reactions were initiated by the addition of NADPH-regenerating system (10-mM β-NADP, 100-mM 6-G-P and 10-U/mL 6-G-P-DH) or NADH. After incubation for 1 h, the reactions were terminated by the addition of two volumes of ice-cold acetonitrile. Samples without NADPH or NADH were included as controls. The incubation mixture was vortexed and centrifuged at 13,300 × g for 5 min. A 10 μL aliquot of the supernatant was injected into an LC-tandem mass spectrometer (LC-MS/MS) for analysis.
(§2) Metabolic profiling studies were performed with a Finnigan TSQ Quantum MS instrument with an electrospray ionization probe and a Finnigan SURVEYOR HPLC system (Thermo Finnigan, San Jose, CA, USA). HPLC was performed with a Zorbax SB-C18 column (2.1 × 100 mm, 3.5 μm, Agilent Corporation, CA, USA) with a column temperature of 35°C and a flow rate of 200 μL/min. F18 and its metabolites were eluted using a linear gradient method with a mobile phase consisting of solvent A (water with 0.1% formic acid) and solvent B (acetonitrile with 0.1% formic acid). […] The samples were analyzed in the positive-ionization mode, and the TSQ capillary temperature was set to 350°C. Nitrogen was used as both the sheath gas and the auxiliary gas and was delivered at 30 psi and 15 psi, respectively. The spray voltage and tube lens were set to 3,800 V and 123 V, respectively. The full-width half maximum (FWHM) was set to 0.7. MS data were acquired in the selective ion-recording mode or by collecting full scans from 200 to 600 m/z at 1 scan/s. The mass spectrometer and HPLC system were operated using Xcalibur 2.0.7 software.

rat liver microsomes = assay: Incubation of F18 with rat liver microsomes, metabolite profiling; format: in vitro ADME; set-up: key: +: Metabolite detected; −: metabolite not detected; conditions: F18 50 μM, 1 h
Protocol: as §1, §2

dog liver microsomes = assay: Incubation of F18 with dog liver microsomes, metabolite profiling; format: in vitro ADME, beagle dog; set-up: key: +: Metabolite detected; −: metabolite not detected; conditions: F18 50 μM, 1 h
Protocol: as §1, §2

monkey liver microsomes = assay: Incubation of F18 with monkey liver microsomes, metabolite profiling; format: in vitro ADME; set-up: key: +: Metabolite detected; −: metabolite not detected; conditions: F18 50 μM, 1 h
Protocol: as §1, §2

human liver cytosol = assay: Incubation of F18 with human liver cytosol, metabolite profiling; format: in vitro ADME; set-up: key: +: Metabolite detected; −: metabolite not detected; conditions: F18 50 μM, 1 h
Protocol: as §1, §2

CYP2A6 = conditions: cited from earlier work
CYP2C9 = conditions: cited from earlier work
[1] = tested on: carbonyl reductases in HLcy; assay: Inhibition of carbonyl reduction of F18 (formation of M3-1 and M3-2) by chemical inhibitors in HLcy; format: in vitro ADME, human; conditions: F18 10 μM, 10 min
Protocol: F18 (10 μM) was incubated with HLMs (0.5 mg/mL) and the NADPH-generating system for 30 min or with HLcy and a cofactor (NADPH or NADH) for 10 min in the presence of chemical inhibitors under the above-described conditions. Control incubations using the vehicles but not the chemical inhibitors were also performed. The formation of M3-1 and M3-2 was quantified by LC-MS/MS.
The amounts of F18, M1, M2-9, M3-1, M3-2, M5-2, M5-3, M5-4, and M5-5 in the incubations were simultaneously quantified with the LC-MS/MS system. […] The sheath gas, auxiliary gas, spray voltage and tube lens parameters were the same as those for the metabolic profiling studies.

CYP2B6 = conditions: cited from earlier work
CYP2C8 = tested on: CYP2C8; set-up: method as in FDA Drug Development and Drug Interactions; conditions: ref FDA Drug Development and Drug Interactions, cited from earlier work; for Ki: read-out: inhibitor Ki, CYP2C8
VSV-G/HIV-1 viruses = assay: microbe, parasite or virus in culture; format: cell-based; conditions: Human immunodeficiency virus 1, HEK-293T, 48 h, read-out: IC50, inhibition of HIV-1 replication
[2] = read-out: inhibitor Ki, CYP2A6, ref FDA Drug Development and Drug Interactions
[3] = read-out: inhibitor Ki, CYP2C9, ref FDA Drug Development and Drug Interactions
[4] = HLcy, cofactor not given, high concentration 50 μM
[5] = HLcy, cofactor not given, low concentration 10 μM
[6] = HLcy with NADH, high concentration: dicumarol 50 μM, 4-methylpyrazole 500 μM
[7] = HLcy with NADH, low concentration: dicumarol 10 μM, 4-methylpyrazole 100 μM
[8] = HLcy with NADPH, high concentration: dicumarol 50 μM, 4-methylpyrazole 500 μM
[9] = HLcy with NADPH, low concentration: dicumarol 10 μM, 4-methylpyrazole 100 μM
[10] = read-out: inhibitor Ki, CYP2B6, ref FDA Drug Development and Drug Interactions

Compound: CCC(O)c1cc(=O)oc2c3c(c4c(c12)OC(C)(C)C=C4)OC(CCl)CC3=O (stereo not drawn) [Metabolite M5-5]
- F18 metabolite detected in HLM (human liver microsomes): +
- F18 metabolite detected in RLM (rat liver microsomes): +
- F18 metabolite detected in DLM (dog liver microsomes): −
- F18 metabolite detected in MLM (monkey liver microsomes): +
- F18 metabolite detected in HLcy with NADH (human liver cytosol): −
- F18 metabolite detected in HLcy with NADPH (human liver cytosol): −

Compound: CCC(O)c1cc(=O)oc2c3c(c4c(c12)OC(C)(C)C=C4)OC(CCl)CC3=O (stereo not drawn) [Metabolite M5-4]
- F18 metabolite detected in HLM (human liver microsomes): +
- F18 metabolite detected in RLM (rat liver microsomes): +
- F18 metabolite detected in DLM (dog liver microsomes): −
- F18 metabolite detected in MLM (monkey liver microsomes): +
- F18 metabolite detected in HLcy with NADH (human liver cytosol): −
- F18 metabolite detected in HLcy with NADPH (human liver cytosol): −

Compound: NCCc1c[nH]c2ccccc12 [tr ypta mine]
- Ki (CYP2A6; [2]): 1700 nM

Compound: OC(Cn1cncn1)(Cn1cncn1)c1ccc(F)cc1F [Fluconazole]
- Ki (CYP2C9; [3]): 7000 nM

Compound: C[C@H](CCC(=O)O)[C@H]1CC[C@H]2[C@@H]3[C@H](O)C[C@@H]4C[C@H](O)CC[C@]4(C)[C@H]3CC[C@]12C [Chenodeoxycholic, chenodeoxycholic acid]
- Percentage of inhibition of the formation of M3-1, H [1, 4]: 69.3%
- Percentage of inhibition of the formation of M3-2, H [1, 4]: 81.2%
- Percentage of inhibition of the formation of M3-1, L [1, 5]: 50.8%
- Percentage of inhibition of the formation of M3-2, L [1, 5]: 62.3%

Compound: CC(O)Cc1cc(=O)oc2c3c(c4c(c12)OC(C)(C)C=C4)OC(CCl)CC3=O (stereo not drawn) [Metabolite M5-3]
- F18 metabolite detected in HLM (human liver microsomes): +
- F18 metabolite detected in RLM (rat liver microsomes): +
- F18 metabolite detected in DLM (dog liver microsomes): +
- F18 metabolite detected in MLM (monkey liver microsomes): +
- F18 metabolite detected in HLcy with NADH (human liver cytosol): −
- F18 metabolite detected in HLcy with NADPH (human liver cytosol): −

Compound: O=C(O)Cc1ccccc1Nc1c(Cl)cccc1Cl [Diclofenac]
- Km (CYP2C9): 3.4 to 52 µM

Compound: CC(NC(C)(C)C)C(=O)c1cccc(Cl)c1 (stereo not drawn) [bupropion]
- Km (CYP2B6; read-out: substrate Km, CYP2B6, bupropion-hydroxylation, ref FDA Drug Development and Drug Interactions): 67 to 168 µM

Compound: N[C@@H]1C[C@H]1c1ccccc1 (racemic) [Tranylcypromine, tranylcypromine]
- Ki (CYP2A6): 20 to 200 nM

Compound: CC1=CC(=O)c2ccccc2C1=O [Menadione, menadione]
- Percentage of inhibition of the formation of M3-1, H [1, 4]: 45.9%
- Percentage of inhibition of the formation of M3-2, H [1, 4]: 58.4%
- Percentage of inhibition of the formation of M3-1, L [1, 5]: 7.7%
- Percentage of inhibition of the formation of M3-2, L [1, 5]: 20.1%

Compound: O=c1oc2ccccc2c(O)c1Cc1c(O)c2ccccc2oc1=O [Dicumarol, dicumarol]
- Percentage of inhibition of the formation of M3-1, H [1, 6]: 51.5%
- Percentage of inhibition of the formation of M3-2, H [1, 6]: 49.6%
- Percentage of inhibition of the formation of M3-1, L [1, 7]: 16.0%
- Percentage of inhibition of the formation of M3-2, L [1, 7]: 6.7%
- Percentage of inhibition of the formation of M3-1, H [1, 8]: 70.6%
- Percentage of inhibition of the formation of M3-2, H [1, 8]: 82.2%
- Percentage of inhibition of the formation of M3-1, L [1, 9]: 52.3%
- Percentage of inhibition of the formation of M3-2, L [1, 9]: 67.7%

Compound: c1ccc(C2(N3CCCCC3)CCCCC2)cc1 [Phencyclidine]
- Ki (CYP2B6; [10]): 10000 nM

Compound: COc1cc(Cc2cnc(N)nc2N)cc(OC)c1OC [Trimethoprim]
- Ki (CYP2C8): 32000 nM

Compound: CCc1ccc(CCOc2ccc(CC3SC(=O)NC3=O)cc2)nc1 (stereo not drawn) [pioglitazone]
- Ki (CYP2C8): 1700 nM

Compound: CC=Cc1cc(=O)oc2c3c(c4c(c12)OC(C)(C)C=C4)OC(CCl)CC3=O (stereo not drawn) [Metabolite M2-9]
- F18 metabolite detected in HLM (human liver microsomes): +
- F18 metabolite detected in RLM (rat liver microsomes): +
- F18 metabolite detected in DLM (dog liver microsomes): −
- F18 metabolite detected in MLM (monkey liver microsomes): −
- F18 metabolite detected in HLcy with NADH (human liver cytosol): −
- F18 metabolite detected in HLcy with NADPH (human liver cytosol): −
- IC50 (VSV-G/HIV-1 viruses): 110 nM

Compound: CCC1(c2ccccc2)C(=O)NC(=O)NC1=O [Phenobarbital, phenobarbital]
- Percentage of inhibition of the formation of M3-1, H [1, 4]: N.I.
- Percentage of inhibition of the formation of M3-2, H [1, 4]: N.I.
- Percentage of inhibition of the formation of M3-1, L [1, 5]: N.I.
- Percentage of inhibition of the formation of M3-2, L [1, 5]: N.I.

Compound: COC(=O)[C@H](c1ccccc1Cl)N1CCc2sccc2C1 [Clopidogrel]
- Ki (CYP2B6): 500 nM

Compound: CC(=O)O[C@H]1C(=O)[C@@]2(C)[C@H]([C@H](OC(=O)c3ccccc3)[C@]3(O)C[C@H](OC(=O)[C@H](O)[C@@H](NC(=O)c4ccccc4)c4ccccc4)C(C)=C1C3(C)C)[C@]1(OC(C)=O)CO[C@@H]1C[C@@H]2O [Taxol]
- Km (CYP2C8; Taxol 6-hydroxylation, N-DesethylAmodiaquine, read-out: substrate Km, CYP2C8): 5.4 to 19 µM

Compound: O=C(O)c1ccccc1Nc1cccc(C(F)(F)F)c1 [Flufenamic acid, flufenamic acid]
- Percentage of inhibition of the formation of M3-1, H [1, 4]: 87.9%
- Percentage of inhibition of the formation of M3-2, H [1, 4]: 94.0%
- Percentage of inhibition of the formation of M3-1, L [1, 5]: 82.4%
- Percentage of inhibition of the formation of M3-2, L [1, 5]: 88.5%

Compound: CC(O)Cc1cc(=O)oc2c3c(c4c(c12)OC(C)(C)C=C4)OC(CCl)CC3=O (stereo not drawn) [Metabolite M5-2]
- F18 metabolite detected in HLM (human liver microsomes): +
- F18 metabolite detected in RLM (rat liver microsomes): +
- F18 metabolite detected in DLM (dog liver microsomes): +
- F18 metabolite detected in MLM (monkey liver microsomes): +
- F18 metabolite detected in HLcy with NADH (human liver cytosol): −
- F18 metabolite detected in HLcy with NADPH (human liver cytosol): −

Compound: Cc1cn[nH]c1 [4-methylpyrazole]
- Percentage of inhibition of the formation of M3-1, H [1, 6]: N.I.
- Percentage of inhibition of the formation of M3-2, H [1, 6]: N.I.
- Percentage of inhibition of the formation of M3-1, L [1, 7]: N.I.
- Percentage of inhibition of the formation of M3-2, L [1, 7]: N.I.
- Percentage of inhibition of the formation of M3-1, H [1, 8]: N.I.
- Percentage of inhibition of the formation of M3-2, H [1, 8]: N.I.
- Percentage of inhibition of the formation of M3-1, L [1, 9]: N.I.
- Percentage of inhibition of the formation of M3-2, L [1, 9]: N.I.

Compound: CNCCC(Oc1ccc(C(F)(F)F)cc1)c1ccccc1 (stereo not drawn) [fluoxetine]
- Ki (CYP2C9; [3]): 18000 to 41000 nM

Compound: O=c1c(O)c(-c2ccc(O)c(O)c2)oc2cc(O)cc(O)c12 [Quercetin, quercetin]
- Percentage of inhibition of the formation of M3-1, H [1, 4]: 80.4%
- Percentage of inhibition of the formation of M3-2, H [1, 4]: 87.0%
- Percentage of inhibition of the formation of M3-1, L [1, 5]: 41.5%
- Percentage of inhibition of the formation of M3-2, L [1, 5]: 54.6%

Compound: medroxyprogesterone
- Percentage of inhibition of the formation of M3-1, H [1, 4]: 24.9%
- Percentage of inhibition of the formation of M3-2, H [1, 4]: 38.8%
- Percentage of inhibition of the formation of M3-1, L [1, 5]: 24.3%
- Percentage of inhibition of the formation of M3-2, L [1, 5]: 35.8%
